Results on twelve compounds are retold here after US11319299B2, “Substituted carboxamides as inhibitors of WDR5 protein-protein binding” (PROPELLON THERAPEUTICS INC., priority 2016, dated 2022).

pIC50, pKd, pKi: −log10 of the molar value. Where two headings read alike, the source gives them in different places.

For experiment [1], the system named is H3K4 dimethylation (H3K4me2) in T24 cells. The experiment in a line: Detection of in-cell H3K4 dimethylation (AlphaLisa). It counts as cell-based. Particulars: Homo sapiens, T-24, 120 h, five days, read-out: In vitro whole cell potency in T24 cells, H3K4Me2 (IC50). Here is the method:
(iii) Detection of In-Cell H3K4 Dimethylation
T24 cells were seeded into a 96-well plate at 400 cells/well in 150 μl medium (McCoy 5A containing 10% FBS, 100 μg/ml Normocin, and 50 μg/ml Gentamycin, Invitrogen). A HP D300 digital dispenser was used to dose cells with DMSO or test compounds across a 10-point range of concentrations (high dose of 10 μM), and cultures were grown in a humidified 5% CO2 incubator at 37° C. After five days, plates were removed from incubator, media was aspirated, and the cells washed in PBS. Cell lysis, histone extraction, and detection of H3K4 dimethylation (H3K4me2) were performed using an AlphaLisa kit according to the manufacturer's instructions (Perkin Elmer). Signal was measured using an Envision plate reader.

Experiment [2] concerns MV4-11 cells. The experiment in a line: Cell proliferation assay (ATPlite). The experiment is classed as cell-based. Particulars: Homo sapiens, MV4-11, 120 h; MV-411 cells, five days; read-out: In vitro whole cell potency in MV-411 cells, (IC50). The essentials:
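Read-out is ATP-based luminescence (ATPlite) after 5 days of culture at 37° C under 5% CO2. Compounds were given as 10-point dilutions starting at 10 μM to MV4-11 cells, seeded at 1,000 cells/well in Alpha-MEM plus 10% FBS.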
A general note: Cellular ATP, detected with luciferase, serves as a proxy for viable cell number.

Experiment [3] has as its target T1, WDR5 (Homo sapiens (Human), UniProt P61964). The note with it: previous studies, J. Med. Chem. 2010, 53: 5179-5185; J. Am. Chem. Soc. 2013, 135: 669-682; read-out: Ki, binding affinity to WDR5; cited from earlier work.
In experiment [4] the target is T1, WDR5. The experiment in a line: Surface Plasmon Resonance (SPR) assay, KD and residence time. The experiment is classed as binding. The note with it: read-out: WDR5 binding affinity (KD).
Where [5] appears, read: surface plasmon resonance (SPR).
[6] abbreviates: surface plasmon resonance (SPR) assay.

Usually pIC50 stands for −log10 of the IC50, conventionally taken in molar units. Consider `C[C@@H]1CN(c2cc(F)c(-c3cnc(N4CCOCC4)nc3)cc2NC(=O)c2c[nH]c(=O)cc2C(F)(F)F)C[C@H](C)N1C` [Example 8, N-(4-fluoro-5-(2-morpholinopyrimidin-5-yl)-2-((3R,5S)-3,4,5-trimethylpiperazin-1-yl)phenyl)-6-oxo-4-(trifluoromethyl)-1,6-dihydropyridine-3-carboxamide], for which the pIC50 in experiment [1] was 6.84. Take `CN1CCN(c2cc(F)c(-c3cnc(N4CCOCC4)nc3)cc2NC(=O)c2c[nH]c(=O)cc2C(F)(F)F)CC1` [Example 3, N-(4-fluoro-2-(4-methylpiperazin-1-yl)-5-(2-morpholinopyrimidin-5-yl)phenyl)-6-oxo-4-(trifluoromethyl)-1,6-dihydropyridine-3-carboxamide]: the results for the pIC50 in experiment [1] and in experiment [2] were 6.05 and 6.13, respectively. `C[C@@H]1CN(c2cc(F)c(-c3cnc(N4CCOCC4)nc3)cc2NC(=O)c2c[nH]c(=O)cc2C(F)(F)F)CCN1C` [Example 6, (R)—N-(2-(3,4-dimethylpiperazin-1-yl)-4-fluoro-5-(2-morpholinopyrimidin-5-yl)phenyl)-6-oxo-4-(trifluoromethyl)-1,6-dihydropyridine-3-carboxamide]: the values for the pIC50 in experiment [1] and in experiment [2] were 5.97 and 6.08, respectively. In the same order, the values of `C[C@@H]1CN(c2cc(F)c(-c3ccc(OCC4CC4)nc3)cc2NC(=O)c2c[nH]c(=O)cc2C(F)(F)F)C[C@H](C)N1C` [Example 39, N-[5-[6-(cyclopropylmethoxy)pyridin-3-yl]-4-fluoro-2-[(3S,5R)-3,4,5-trimethylpiperazin-1-yl]phenyl]-6-oxo-4-(trifluoromethyl)-1H-pyridine-3-carboxamide] are 6.20 and 6.67. For the compound `C[C@H]1CN(c2cc(F)c(-c3cnc(N4CCOCC4)nc3)cc2NC(=O)c2c[nH]c(=O)cc2C(F)(F)F)CCN1C` [Example 7, (S)—N-(2-(3,4-dimethylpiperazin-1-yl)-4-fluoro-5-(2-morpholinopyrimidin-5-yl)phenyl)-6-oxo-4-(trifluoromethyl)-1,6-dihydropyridine-3-carboxamide], the values for the negative logarithm of the IC50 (pIC50) in experiment [1] and in experiment [2] were 6.78 and 7.29, respectively. As a reminder, the pKi is the negative decadic logarithm of the Ki, by convention in mol/L. Ac-A-R-A-NH2: the pKi in experiment [3] is 3.92.

As a reminder, the pKd is the Kd on a negative log10 scale, so that one unit is a factor of ten. Regarding `CC1CN(c2cc(F)c(-c3csc(N4CCOCC4)n3)cc2NC(=O)c2c[nH]c(=O)cc2C(F)(F)F)CCN1C` (stereo in doubt) [Example 617, N-[4-fluoro-5-(2-morpholin-4-yl-1,3-thiazol-4-yl)-2-[(3R)-3,4-dimethylpiperazin-1-yl]phenyl]-6-oxo-4-(trifluoromethyl)-1H-pyridine-3-carboxamide], the pKd in experiment [4] (setting [5]) is 3.25. For the same compound, in experiment [2], the pIC50 was 7.44. On to `C[C@@H]1CN(c2cc(F)c(-c3cnc(N(C)C)c(F)c3)cc2NC(=O)c2c[nH]c(=O)cc2C(F)(F)F)C[C@H](C)N1C` [Example 221, N-[5-[6-(dimethylamino)-5-fluoropyridin-3-yl]-4-fluoro-2-[(3R,5S)-3,4,5-trimethylpiperazin-1-yl]phenyl]-6-oxo-4-(trifluoromethyl)-1H-pyridine-3-carboxamide], for which the negative logarithm of the Kd (pKd) in experiment [4] (setting [6]) is 9.11. For the same compound, the pIC50 in experiment [2] is 6.92. Regarding `CC1CN(c2cc(F)c(-c3ccc(N4C[C@@H](C)O[C@@H](C)C4)nc3)cc2NC(=O)c2c[nH]c(=O)cc2C(F)(F)F)CCN1C` (stereo in doubt) [Example 341, N-[4-fluoro-5-[6-[(2R,6S)-2,6-dimethylmorpholin-4-yl]pyridin-3-yl]-2-[(3R)-3,4-dimethylpiperazin-1-yl]phenyl]-6-oxo-4-(trifluoromethyl)-1H-pyridine-3-carboxamide], the pKd in experiment [4] (setting [6]) was 8.71. Also, in experiment [2], the pIC50 was 7.28.

For `C[C@@H]1CN(c2cc(F)c(-c3ccc(OCC4CC4)c(Cl)c3)cc2NC(=O)c2c[nH]c(=O)cc2C(F)(F)F)C[C@H](C)N1C` [Example 92, N-[5-[3-chloro-4-(cyclopropylmethoxy)phenyl]-4-fluoro-2-[(3R,5S)-3,4,5-trimethylpiperazin-1-yl]phenyl]-6-oxo-4-(trifluoromethyl)-1H-pyridine-3-carboxamide], in experiment [4] (setting [6]), the pKd is 7.96. Further, the pIC50 in experiment [2] was 7.15.

Consider `C[C@@H]1CN(c2cc(F)c(C3=CCCN(c4ncc(CN5CCOCC5)cn4)C3)cc2NC(=O)c2c[nH]c(=O)cc2C(F)(F)F)C[C@H](C)N1C` [Example 415, N-[4-fluoro-5-[1-[5-(morpholin-4-ylmethyl)pyrimidin-2-yl]-3,6-dihydro-2H-pyridin-5-yl]-2-[(3R,5S)-3,4,5-trimethylpiperazin-1-yl]phenyl]-6-oxo-4-(trifluoromethyl)-1H-pyridine-3-carboxamide], for which the pKd in experiment [4] (setting [5]) was 8.96. Moreover, the pIC50 in experiment [2] is 7.77. `C[C@@H]1CN(c2cc(F)c(C3=CCN(c4ncccn4)CC3)cc2NC(=O)c2c[nH]c(=O)cc2C(F)(F)F)C[C@H](C)N1C` [Example 245, N-[4-fluoro-5-(1-pyrimidin-2-yl-3,6-dihydro-2H-pyridin-4-yl)-2-[(3R,5S)-3,4,5-trimethylpiperazin-1-yl]phenyl]-6-oxo-4-(trifluoromethyl)-1H-pyridine-3-carboxamide]: in experiment [4] (setting [6]), the pKd was 8.86. Besides, the pIC50 in experiment [2] is 6.90.
